Values belong to the compound of their own block, whether it stands above or below them.
System: 653999-131-R-J2-PDC complex spheroids, growth inhibition
Experiment: Anticancer human tumor 653999-131-R-J2-PDC patient-derived lung adenocarcinoma cell line growth inhibition [RAS]
Settings: for IC50: curve of first compound; for viability, T/C: stronger effect = lower value
In short: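 Multi-cell-type spheroids: tumor cells plus HUVEC endothelial cells and mesenchymal stem cells. RAS-pathway inhibitors were combined with targeted agents, each dosed in half-log steps down from clinical Cmax, or from 10 microM when Cmax was unknown.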

[1] = second compound 0.00316 µM, first compound 0.0316 µM
[2] = second compound 0.00316 µM, first compound 0.1 µM
[3] = second compound 0.00316 µM, first compound 0.316 µM
[4] = second compound 0.00316 µM, first compound 1 µM
[5] = second compound 0.01 µM, first compound 0.0316 µM
[6] = second compound 0.01 µM, first compound 0.1 µM
[7] = second compound 0.01 µM, first compound 0.316 µM
[8] = second compound 0.01 µM, first compound 1 µM
[9] = second compound 0.0316 µM, first compound 0.0316 µM
[10] = second compound 0.0316 µM, first compound 0.1 µM
[11] = second compound 0.0316 µM, first compound 0.316 µM
[12] = second compound 0.0316 µM, first compound 1 µM
[13] = second compound 0.1 µM, first compound 0.0316 µM
[14] = second compound 0.1 µM, first compound 0.1 µM
[15] = second compound 0.1 µM, first compound 0.316 µM
[16] = second compound 0.1 µM, first compound 1 µM
[17] = second compound 0.316 µM, first compound 0.0316 µM
[18] = second compound 0.316 µM, first compound 0.1 µM
[19] = second compound 0.316 µM, first compound 0.316 µM
[20] = second compound 0.316 µM, first compound 1 µM
[21] = second compound 1 µM, first compound 0.0316 µM
[22] = second compound 1 µM, first compound 0.1 µM
[23] = second compound 1 µM, first compound 0.316 µM
[24] = second compound 1 µM, first compound 1 µM
[25] = second compound 0.00316 µM, first compound 0.000949 µM
[26] = second compound 0.00316 µM, first compound 0.003 µM
[27] = second compound 0.00316 µM, first compound 0.00949 µM
[28] = second compound 0.00316 µM, first compound 0.03 µM
[29] = second compound 0.00316 µM, first compound 0.0949 µM
[30] = second compound 0.00316 µM, first compound 0.3 µM
[31] = second compound 0.01 µM, first compound 0.000949 µM
[32] = second compound 0.01 µM, first compound 0.003 µM
[33] = second compound 0.01 µM, first compound 0.00949 µM
[34] = second compound 0.01 µM, first compound 0.03 µM
[35] = second compound 0.01 µM, first compound 0.0949 µM
[36] = second compound 0.01 µM, first compound 0.3 µM
[37] = second compound 0.0316 µM, first compound 0.000949 µM
[38] = second compound 0.0316 µM, first compound 0.003 µM
[39] = second compound 0.0316 µM, first compound 0.00949 µM
[40] = second compound 0.0316 µM, first compound 0.03 µM
[41] = second compound 0.0316 µM, first compound 0.0949 µM
[42] = second compound 0.0316 µM, first compound 0.3 µM
[43] = second compound 0.1 µM, first compound 0.000949 µM
[44] = second compound 0.1 µM, first compound 0.003 µM
[45] = second compound 0.1 µM, first compound 0.00949 µM
[46] = second compound 0.1 µM, first compound 0.03 µM
[47] = second compound 0.1 µM, first compound 0.0949 µM
[48] = second compound 0.1 µM, first compound 0.3 µM
[49] = second compound 0.316 µM, first compound 0.000949 µM
[50] = second compound 0.316 µM, first compound 0.003 µM
[51] = second compound 0.316 µM, first compound 0.00949 µM
[52] = second compound 0.316 µM, first compound 0.03 µM
[53] = second compound 0.316 µM, first compound 0.0949 µM
[54] = second compound 0.316 µM, first compound 0.3 µM
[55] = second compound 1 µM, first compound 0.000949 µM
[56] = second compound 1 µM, first compound 0.003 µM
[57] = second compound 1 µM, first compound 0.00949 µM
[58] = second compound 1 µM, first compound 0.03 µM
[59] = second compound 1 µM, first compound 0.0949 µM
[60] = second compound 1 µM, first compound 0.3 µM
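Note: spheroids exposed to the agents for seven days before the readout.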

IC50 (second compound 0.00316 µM): > 10 µM
IC50 (second compound 0.01 µM): > 10 µM
IC50 (second compound 0.0316 µM): > 10 µM
IC50 (second compound 0.1 µM): > 10 µM
IC50 (second compound 0.316 µM): > 10 µM
IC50 (second compound 1 µM): > 10 µM
SMILES: CC(=O)OC12COC1CC(O)C1(C)C(=O)C(O)C3=C(C)C(OC(=O)C(O)C(NC(=O)OC(C)(C)C)c4ccccc4)CC(O)(C(OC(=O)c4ccccc4)C21)C3(C)C (stereo not drawn) + C=CC(=O)N1CCN(c2nc(OCC3CCCN3C)nc3c(F)c(-c4nc(N)cc(C)c4C(F)(F)F)c(Cl)cc23)C(C)C1
viability, T/C [1]: 56.6%
viability, T/C [2]: 48.1%
viability, T/C [3]: 56%
viability, T/C [4]: 58.8%
viability, T/C (second compound 0.00316 µM, first compound 3.16 µM): 61.7%
viability, T/C (second compound 0.00316 µM, first compound 10 µM): 68%
viability, T/C [5]: 63.7%
viability, T/C [6]: 54.2%
viability, T/C [7]: 57.9%
viability, T/C [8]: 67.5%
viability, T/C (second compound 0.01 µM, first compound 3.16 µM): 62.6%
viability, T/C (second compound 0.01 µM, first compound 10 µM): 76%
viability, T/C [9]: 58.4%
viability, T/C [10]: 59.2%
viability, T/C [11]: 49.2%
viability, T/C [12]: 58.7%
viability, T/C (second compound 0.0316 µM, first compound 3.16 µM): 73.4%
viability, T/C (second compound 0.0316 µM, first compound 10 µM): 66.5%
viability, T/C [13]: 59.5%
viability, T/C [14]: 57.2%
viability, T/C [15]: 53.7%
viability, T/C [16]: 56.2%
viability, T/C (second compound 0.1 µM, first compound 3.16 µM): 72.5%
viability, T/C (second compound 0.1 µM, first compound 10 µM): 93.3%
viability, T/C [17]: 55.7%
viability, T/C [18]: 61.3%
viability, T/C [19]: 54.5%
viability, T/C [20]: 63.5%
viability, T/C (second compound 0.316 µM, first compound 3.16 µM): 79.8%
viability, T/C (second compound 0.316 µM, first compound 10 µM): 84.1%
viability, T/C [21]: 53%
viability, T/C [22]: 57.5%
viability, T/C [23]: 62.3%
viability, T/C [24]: 60.3%
viability, T/C (second compound 1 µM, first compound 3.16 µM): 62.9%
viability, T/C (second compound 1 µM, first compound 10 µM): 82.4%

IC50 (second compound 0.00316 µM): > 0.3 µM
IC50 (second compound 0.01 µM): > 0.3 µM
IC50 (second compound 0.0316 µM): > 0.3 µM
IC50 (second compound 0.1 µM): > 0.3 µM
IC50 (second compound 0.316 µM): > 0.3 µM
IC50 (second compound 1 µM): > 0.3 µM
SMILES: CC1(C)CCC(Nc2ncc(C(F)(F)F)c(-c3c[nH]c4c(P(C)(C)=O)c(C#N)ccc34)n2)CN1 (stereo not drawn) + C=CC(=O)N1CCN(c2nc(OCC3CCCN3C)nc3c(F)c(-c4nc(N)cc(C)c4C(F)(F)F)c(Cl)cc23)C(C)C1
viability, T/C [25]: 84%
viability, T/C [26]: 70.5%
viability, T/C [27]: 73.5%
viability, T/C [28]: 60.1%
viability, T/C [29]: 70%
viability, T/C [30]: 71.4%
viability, T/C [31]: 88.8%
viability, T/C [32]: 74%
viability, T/C [33]: 70.1%
viability, T/C [34]: 60.9%
viability, T/C [35]: 68%
viability, T/C [36]: 64.6%
viability, T/C [37]: 89.8%
viability, T/C [38]: 66.1%
viability, T/C [39]: 59.9%
viability, T/C [40]: 64.2%
viability, T/C [41]: 65.2%
viability, T/C [42]: 64.5%
viability, T/C [43]: 77.5%
viability, T/C [44]: 68.7%
viability, T/C [45]: 61%
viability, T/C [46]: 58.5%
viability, T/C [47]: 60.1%
viability, T/C [48]: 69.8%
viability, T/C [49]: 101%
viability, T/C [50]: 72.3%
viability, T/C [51]: 69.8%
viability, T/C [52]: 77.1%
viability, T/C [53]: 77.5%
viability, T/C [54]: 69.5%
viability, T/C [55]: 78.9%
viability, T/C [56]: 69.9%
viability, T/C [57]: 74%
viability, T/C [58]: 64%
viability, T/C [59]: 65.9%
viability, T/C [60]: 63.7%

IC50 (second compound 0.00316 µM): 0.00857 µM
IC50 (second compound 0.01 µM): 0.00653 µM
IC50 (second compound 0.0316 µM): 0.00641 µM
IC50 (second compound 0.1 µM): 0.00592 µM
IC50 (second compound 0.316 µM): 0.00594 µM
IC50 (second compound 1 µM): 0.00846 µM
SMILES: CCc1c2c(nc3ccc(O)cc13)-c1cc3c(c(=O)n1C2)COC(=O)[C@]3(O)CC + C=CC(=O)N1CCN(c2nc(OCC3CCCN3C)nc3c(F)c(-c4nc(N)cc(C)c4C(F)(F)F)c(Cl)cc23)C(C)C1
viability, T/C [25]: 80.2%
viability, T/C [26]: 58.5%
viability, T/C [27]: 53.5%
viability, T/C [28]: 34.3%
viability, T/C [29]: 20.8%
viability, T/C [30]: 10.2%
viability, T/C [31]: 88.7%
viability, T/C [32]: 61.9%
viability, T/C [33]: 44.2%
viability, T/C [34]: 29%
viability, T/C [35]: 21.5%
viability, T/C [36]: 11.3%
viability, T/C [37]: 90.9%
viability, T/C [38]: 60.8%
viability, T/C [39]: 43.8%
viability, T/C [40]: 30.4%
viability, T/C [41]: 20.6%
viability, T/C [42]: 11.6%
viability, T/C [43]: 85.8%
viability, T/C [44]: 58.3%
viability, T/C [45]: 43.1%
viability, T/C [46]: 30.2%
viability, T/C [47]: 23.7%
viability, T/C [48]: 12.1%
viability, T/C [49]: 83.9%
viability, T/C [50]: 59.7%
viability, T/C [51]: 42.5%
viability, T/C [52]: 29.5%
viability, T/C [53]: 23%
viability, T/C [54]: 11.9%
viability, T/C [55]: 84.5%
viability, T/C [56]: 64.2%
viability, T/C [57]: 50.7%
viability, T/C [58]: 31.2%
viability, T/C [59]: 25.3%
viability, T/C [60]: 14.5%

IC50 (second compound 0.00316 µM): 0.126 µM
IC50 (second compound 0.01 µM): 0.0618 µM
IC50 (second compound 0.0316 µM): 0.0846 µM
IC50 (second compound 0.1 µM): 0.0472 µM
IC50 (second compound 0.316 µM): 0.0934 µM
IC50 (second compound 1 µM): 0.0903 µM
SMILES: Nc1ccn(C2OC(CO)C(O)C2(F)F)c(=O)n1 (stereo not drawn) + C=CC(=O)N1CCN(c2nc(OCC3CCCN3C)nc3c(F)c(-c4nc(N)cc(C)c4C(F)(F)F)c(Cl)cc23)C(C)C1
viability, T/C (second compound 0.00316 µM, first compound 0.00316 µM): 86.5%
viability, T/C (second compound 0.00316 µM, first compound 0.01 µM): 82.4%
viability, T/C [1]: 61.8%
viability, T/C [2]: 56%
viability, T/C [3]: 38.7%
viability, T/C [4]: 32%
viability, T/C (second compound 0.01 µM, first compound 0.00316 µM): 107%
viability, T/C (second compound 0.01 µM, first compound 0.01 µM): 78.3%
viability, T/C [5]: 54%
viability, T/C [6]: 45.9%
viability, T/C [7]: 41.2%
viability, T/C [8]: 29.7%
viability, T/C (second compound 0.0316 µM, first compound 0.00316 µM): 80.3%
viability, T/C (second compound 0.0316 µM, first compound 0.01 µM): 79.8%
viability, T/C [9]: 67.8%
viability, T/C [10]: 46.6%
viability, T/C [11]: 38.2%
viability, T/C [12]: 33.8%
viability, T/C (second compound 0.1 µM, first compound 0.00316 µM): 84.3%
viability, T/C (second compound 0.1 µM, first compound 0.01 µM): 77.3%
viability, T/C [13]: 55.7%
viability, T/C [14]: 38.2%
viability, T/C [15]: 40.1%
viability, T/C [16]: 30.5%
viability, T/C (second compound 0.316 µM, first compound 0.00316 µM): 94.6%
viability, T/C (second compound 0.316 µM, first compound 0.01 µM): 80.4%
viability, T/C [17]: 59.9%
viability, T/C [18]: 48.2%
viability, T/C [19]: 42.2%
viability, T/C [20]: 29.8%
viability, T/C (second compound 1 µM, first compound 0.00316 µM): 89.5%
viability, T/C (second compound 1 µM, first compound 0.01 µM): 81.4%
viability, T/C [21]: 60.6%
viability, T/C [22]: 48.9%
viability, T/C [23]: 42.2%
viability, T/C [24]: 33.7%

— PubChem BioAssay AID2060886 (Molecular Pharmacology Branch, DTP, NCI, 2025)
